Data as given in patent US9834558B2, “Substituted bridged urea analogs as sirtuin modulators” (GLAXOSMITHKLINE LLC, priority 2013, dated 2017).
Counter-ions that a name gives are not always drawn. Like-named read-outs stand apart in the source and are kept apart here. Each block holds one compound with its values, some of them ahead of it.

Target: T1, SIRT1 (Homo sapiens, UniProt Q96EB6)
T1 sequence (Q96EB6 1-747): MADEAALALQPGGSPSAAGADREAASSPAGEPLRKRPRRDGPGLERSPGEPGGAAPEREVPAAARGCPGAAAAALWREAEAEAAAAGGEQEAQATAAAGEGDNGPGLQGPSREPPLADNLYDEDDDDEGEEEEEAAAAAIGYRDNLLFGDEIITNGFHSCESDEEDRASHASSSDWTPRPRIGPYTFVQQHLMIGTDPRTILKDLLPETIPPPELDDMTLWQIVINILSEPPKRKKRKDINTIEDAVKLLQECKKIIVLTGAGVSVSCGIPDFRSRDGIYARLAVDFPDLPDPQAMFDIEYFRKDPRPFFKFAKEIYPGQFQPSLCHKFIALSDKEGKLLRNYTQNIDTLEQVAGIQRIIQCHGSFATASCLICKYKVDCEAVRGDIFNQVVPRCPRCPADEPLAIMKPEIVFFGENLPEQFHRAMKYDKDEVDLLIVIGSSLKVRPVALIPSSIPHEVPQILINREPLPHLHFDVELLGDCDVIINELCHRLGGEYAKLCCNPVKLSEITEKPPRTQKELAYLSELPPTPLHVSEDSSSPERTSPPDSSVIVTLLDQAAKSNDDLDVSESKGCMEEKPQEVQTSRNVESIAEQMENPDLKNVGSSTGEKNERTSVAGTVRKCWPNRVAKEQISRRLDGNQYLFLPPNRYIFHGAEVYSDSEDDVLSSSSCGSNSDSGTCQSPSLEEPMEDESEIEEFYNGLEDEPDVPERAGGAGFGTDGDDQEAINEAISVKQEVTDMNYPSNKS
Assay: Trp mass spectrometry assay of SIRT1 activation
Format: biochemical
Details: for TRP Activity (EC1.5): EC1.5 = concentration that results in 150% activation of SIRT1
Outline: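 N-terminal His-tagged human SIRT1 (10 nM, E. coli BL21(DE3)) with 0.5 μM Ac-RHKK(Ac)W-NH2 peptide and 120 μM βNAD+, 25 min at 25 °C in HEPES pH 7.5, formic acid stop. OAADPR or deacetylated peptide quantified by mass spectrometry; EC1.5 (50% activity increase over control) and Percent Maximum Activation reported.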

[1] = concentration giving 150% activation of SIRT1, Trp peptide substrate
[2] = percent maximum fold activation of SIRT1, Trp peptide substrate, read-out: Tryp % Fold Act
[3] = Trp mass spectrometry assay, EC1.5 = concentration of test compound that results in 150% activation of SIRT1
[4] = Trp mass spectrometry assay, percent maximum fold activation of SIRT1, read-out: Tryp % Fold Act
[5] = Trp peptide assay, maximum activity relative to control (100%), read-out: TRP MAX RESP (percent maximum fold activation)
[6] = Trp mass spectrometry assay, concentration of test compound giving 150% activation of SIRT1

Tryp AVG EC1.5 (μM) [1]: A (A (EC1.5<1 μM))
SMILES: O=C(Nc1ccccn1)N1c2nc(-c3cccc(C(F)(F)F)c3)ccc2N2CCC[C@H]1C2 [Example 820]

Tryp AVG EC1.5 (μM) [1]: A (A (EC1.5<1 μM)) | Emax [2]: > 150%
SMILES: [N-]=[N+]=Nc1cc(N=[N+]=[N-])cc(-c2ccc3c(n2)N(C(=O)Nc2ccc(F)cn2)[C@H]2CCN3C2)c1 [Example 806]

Tryp AVG EC1.5 (μM) [1]: A (A (EC1.5<1 μM))
SMILES: O=C1CN2C[C@H]1N(C(=O)Nc1cccc(-c3cnco3)c1)c1nc(-c3cccc(C(F)(F)F)c3)ccc12 [Example 692]

Tryp AVG EC1.5 (μM) [3]: A (A (EC1.5<1 μM)) | Emax [4]: > 150%
SMILES: O=C(Nc1ccccn1)N1c2nc(-c3ccnc(N4CC[C@H](F)C4)c3)ccc2N2CC[C@H]1C2 [Example 422]

Tryp AVG EC1.5 (μM) [3]: B (B (EC1.5 1-25 μM))
SMILES: COc1cc(NC(=O)N2c3nc(-c4cncc(Cl)c4)ccc3N3CCC2CC3)nc(OC)n1 [Example 553]

Tryp AVG EC1.5 (μM) [1]: A (A (EC1.5<1 μM))
SMILES: NCCCCCC(=O)NCc1cn(-c2cccc(NC(=O)N3c4nc(-c5cccc(C(F)(F)F)c5)ccc4N4CC[C@H]3C4)c2)nn1 [Example 639]

Tryp AVG EC1.5 (μM) [3]: A (A (EC1.5<1 μM))
SMILES: O=C(CCCC[C@@H]1SCC2NC(=O)NC21)NCCCCCC(=O)NCc1ccc(NC(=O)N2c3nc(-c4cccc(C(F)(F)F)c4)ccc3N3CC[C@H]2C3)cc1 (some centres unmarked) [Example 428]

Tryp AVG EC1.5 (μM) [3]: A (A (EC1.5<1 μM))
SMILES: O=C(Nc1cccc(-c2cnco2)c1)N1c2nc(-c3cncc(F)c3)ccc2N2CCC1CC2 [Example 574]

Tryp AVG EC1.5 (μM) [3]: B (B (EC1.5 1-25 μM))
SMILES: O=C(Nc1cncc(F)c1)N1c2nc(-c3cncc(F)c3)ccc2N2CCC1CC2 [Example 571]

Tryp AVG EC1.5 (μM) [3]: A (A (EC1.5<1 μM)) | Emax [4]: > 150%
SMILES: O=C(Nc1cc(F)ccn1)N1c2nc(-c3cccc(C(F)(F)F)c3)ccc2N2CCC1CC2 [Example 492]

Tryp AVG EC1.5 (μM) (Trp peptide substrate, concentration giving 150% activation of SIRT1): B (B (EC1.5 1-25 μM))
SMILES: Cc1nc(NC(=O)N2c3nc(-c4cccc(C(F)(F)F)c4)ccc3N3CC[C@H]2C3)nc2c1CCC2 [Example 91]

TRP Activity (EC1.5) (Trp peptide assay): A (A (EC1.5<1 μM)) | Emax [5]: > 150%
SMILES: O=C(Nc1cncc(OC[C@@H](O)CO)n1)N1c2nc(-c3cccc(C(F)(F)F)c3)ccc2N2CC[C@H]1C2 [(9S)-N-{6-[(2S)-2,3-dihydroxypropoxy]pyrazin-2-yl}-5-[3-(trifluoromethyl)phenyl]-1,6,8-triazatricyclo[7.2.1.0 {2,7}]dodeca-2(7),3,5-triene-8-carboxamide]

TRP Activity (EC1.5) (Trp peptide assay): B (B (EC1.5 1-25 μM)) | Emax [5]: > 150%
SMILES: Cc1cc(-c2ccc3c(n2)N(C(=O)Nc2cnccn2)[C@H]2CCN3C2)c(C)cn1 [(9S)-5-(2,5-dimethylpyridin-4-yl)-N-(pyrazin-2-yl)-1,6,8-triazatricyclo[7.2.1.0 {2,7}]dodeca-2,4,6-triene-8-carboxamide]

Tryp AVG EC1.5 (μM) [1]: A (A (EC1.5<1 μM)) | Emax [2]: > 150%
SMILES: C#CCCCNc1nccc(NC(=O)N2c3nc(-c4ccc(C5(C(F)(F)F)N=N5)cc4)ccc3N3CC[C@H]2C3)n1 [Example 798]

Tryp AVG EC1.5 (μM) [1]: A (A (EC1.5<1 μM))
SMILES: C#CCCCNc1nccc(NC(=O)N2c3nc(-c4cccc(C5(C(F)(F)F)N=N5)c4)ccc3N3CC[C@H]2C3)n1 [Example 801]

Tryp AVG EC1.5 (μM) [1]: A (A (EC1.5<1 μM))
SMILES: [N-]=[N+]=NCc1cc(N=[N+]=[N-])cc(-c2ccc3c(n2)N(C(=O)Nc2cnccn2)[C@H]2CCN3C2)c1 [Example 808]

TRP Activity (EC1.5) (Trp peptide assay): A (A (EC1.5<1 μM)) | Emax [5]: > 150%
SMILES: CCc1cncc(NC(=O)N2c3nc(-c4ccnc(C)c4)ccc3N3CC[C@H]2C3)n1 [(9S)-N-(6-ethylpyrazin-2-yl)-5-(2-methylpyridin-4-yl)-1,6,8-triazatricyclo[7.2.1.0 {2,7}]dodeca-2(7),3,5-triene-8-carboxamide]

Tryp AVG EC1.5 (μM) [3]: A (A (EC1.5<1 μM))
SMILES: COc1cnc(NC(=O)N2c3nc(-c4ccnc(C)c4)ccc3N3CC[C@H]2C3)cn1 [Example 500]

Tryp AVG EC1.5 (μM) [6]: A (A (EC1.5<1 μM))
SMILES: N#Cc1cccc(-c2ccc3c(n2)N(C(=O)Nc2cccnc2)[C@H]2CCCN3C2)c1 [Example 350]

TRP Activity (EC1.5) (Trp peptide assay): A (A (EC1.5<1 μM)) | Emax [5]: > 150%
SMILES: O=C(Nc1cc(OC[C@@H](O)CO)ccn1)N1c2nc(-c3cccc(C(F)(F)F)c3)ccc2N2CC[C@H]1C2 [(9S)-N-{4-[(2S)-2,3-dihydroxypropoxy]pyridin-2-yl}-5-[3-(trifluoromethyl)phenyl]-1,6,8-triazatricyclo[7.2.1.0 {2,7}]dodeca-2(7),3,5-triene-8-carboxamide]

Tryp AVG EC1.5 (μM) [3]: A (A (EC1.5<1 μM))
SMILES: O=C(Nc1cc(-c2cnco2)ccn1)N1c2nc(-c3cccc(C(F)(F)F)c3)ccc2N2CC[C@H]1C2 [Example 589]

Tryp AVG EC1.5 (μM) [3]: A (A (EC1.5<1 μM))
SMILES: O=C(Nc1cncc(F)c1)N1c2nc(-c3cccc(N4CCOCC4)c3)ccc2N2CCC[C@H]1C2 [Example 559]

Tryp AVG EC1.5 (μM) [1]: B (B (EC1.5 1-25 μM))
SMILES: O=C(NCCCc1ccccn1)N1c2nc(-c3cccc(C(F)(F)F)c3)ccc2N2CC[C@H]1C2 [Example 673]

TRP Activity (EC1.5) (Trp peptide assay): A (A (EC1.5<1 μM)) | Emax [5]: > 150%
SMILES: O=C(Nc1ccnc(OC[C@@H](O)CO)c1)N1c2nc(-c3cccc(C(F)(F)F)c3)ccc2N2CC[C@H]1C2 [(9S)-N-{2-[(2S)-2,3-dihydroxypropoxy]pyridin-4-yl}-5-[3-(trifluoromethyl)phenyl]-1,6,8-triazatricyclo[7.2.1.0 {2,7}]dodeca-2,4,6-triene-8-carboxamide]

Tryp AVG EC1.5 (μM) [6]: A (A (EC1.5<1 μM))
SMILES: O=C(Nc1ccccn1)N1c2nc(-c3cc(F)cc(F)c3)ccc2N2CC[C@H]1C2 [Example 344]

Tryp AVG EC1.5 (μM) [3]: B (B (EC1.5 1-25 μM))
SMILES: Cc1ccncc1-c1ccc2c(n1)N(C(=O)Nc1cncc(F)c1)[C@H]1CCCN2C1 [Example 510]

TRP Activity (EC1.5) (Trp peptide assay): B (B (EC1.5 1-25 μM)) | Emax [5]: > 150%
SMILES: N#Cc1ccc(-c2ccc3c(n2)N(C(=O)Nc2cccnc2)[C@H]2CCN3C2)cn1 [(9S)-5-(6-cyanopyridin-3-yl)-N-(pyridin-3-yl)-1,6,8-triazatricyclo[7.2.1.0^2,7]dodeca-2,4,6-triene-8-carboxamide]

TRP Activity (EC1.5) (Trp peptide assay): C (C (EC1.5>25 μM)) | Emax [5]: < 150%
SMILES: Cc1ccc(-c2ccc3c(n2)N(C(=O)NC2CCOCC2)[C@H]2CCN3C2)cn1 [(9S)-5-(6-methylpyridin-3-yl)-N-(oxan-4-yl)-1,6,8-triazatricyclo[7.2.1.0^{2,7}]dodeca-2(7),3,5-triene-8-carboxamide]

TRP Activity (EC1.5) (Trp peptide assay, hydrochloride): A (A (EC1.5<1 μM)) | Emax [5]: > 150%
SMILES: O=C(Nc1ccccn1)N1c2nc(N3CC[C@H](C(F)(F)F)C3)ccc2N2CCC[C@H]1C2 [drawing 1225, (9S)-N-(pyridin-2-yl)-5-[(3S)-3-(trifluoromethyl)pyrrolidin-1-yl]-1,6,8-triazatricyclo[7.3.1.0 {2,7}]trideca-2(7),3,5-triene-8-carboxamide hydrochloride]

Tryp AVG EC1.5 (μM) [6]: B (B (EC1.5 1-25 μM))
SMILES: O=C(Nc1ccccn1)N1c2nc(-c3cccc(C(F)(F)F)n3)ccc2N2CC[C@H]1C2 [Example 336]

TRP Activity (EC1.5) (Trp peptide assay): A (A (EC1.5<1 μM)) | Emax [5]: > 150%
SMILES: O=C(Nc1cnccn1)N1c2nc(N3CCC[C@H](C(F)(F)F)C3)ccc2N2CCC[C@H]1C2 [(9S)-N-(pyrazin-2-yl)-5-[(3S)-3-(trifluoromethyl)piperidin-1-yl]-1,6,8-triazatricyclo[7.3.1.0 {2,7}]trideca-2(7),3,5-triene-8-carboxamide]

Tryp AVG EC1.5 (μM) [1]: A (A (EC1.5<1 μM))
SMILES: O=C(Nc1cccc(Br)n1)N1c2nc(-c3cccc(C(F)(F)F)c3)ccc2N2CC[C@H]1C2 [Example 652]

Tryp AVG EC1.5 (μM) [3]: B (B (EC1.5 1-25 μM))
SMILES: Cc1nc(NC(=O)N2c3nc(-c4cncc(Cl)c4)ccc3N3CCC2CC3)sc1C [Example 554]

Tryp AVG EC1.5 (μM) [6]: B (B (EC1.5 1-25 μM))
SMILES: O=C(Nc1cnccn1)N1c2nc(-c3cncc(F)c3)ccc2N2CC[C@H]1C2 [Example 400]

Tryp AVG EC1.5 (μM) [3]: A (A (EC1.5<1 μM))
SMILES: Cc1cncc(-c2ccc3c(n2)N(C(=O)Nc2cncc(F)c2)[C@H]2CCCN3C2)c1 [Example 509]

Tryp AVG EC1.5 (μM) [1]: B (B (EC1.5 1-25 μM))
SMILES: O=C(Nc1cnccn1)N1c2nc(-c3cncc(C(F)(F)F)c3)ccc2N2C[C@@H](O)[C@H]1C2 [Example 695]

Tryp AVG EC1.5 (μM) [1]: A (A (EC1.5<1 μM))
SMILES: CC(=O)c1cccc(NC(=O)N2c3nc(-c4cccc(C(F)(F)F)c4)ccc3N3CC[C@H]2C3)c1 [Example 671]
